Reference: PubChem BioAssay (NCI)
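Step 1: Grow cells in 96-well plates. Step 2: Expose to compound for 48 hours at 5 concentrations. Step 3: Interpolate endpoints linearly; if unreached, use highest concentration. TGI is the concentration that stops growth completely.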

Key:
Assay in all cases: growth of human tumour cells (NCI), 48 h
SK-MEL-28 melanoma = tested on: SK-MEL-28 melanoma
HL-60(TB) leukemia = tested on: HL-60(TB) leukemia
U251 CNS = tested on: U251 CNS
ACHN renal = tested on: ACHN renal
CCRF-CEM leukemia = tested on: CCRF-CEM leukemia
UO-31 renal = tested on: UO-31 renal
SNB-75 CNS = tested on: SNB-75 CNS
RPMI-8226 leukemia = tested on: RPMI-8226 leukemia
HCC-2998 colon = tested on: HCC-2998 colon
OVCAR-4 ovarian = tested on: OVCAR-4 ovarian
OVCAR-5 ovarian = tested on: OVCAR-5 ovarian
MDA-MB-231 breast = tested on: MDA-MB-231 breast
MOLT-4 leukemia = tested on: MOLT-4 leukemia
HCT-15 colon = tested on: HCT-15 colon
CAKI-1 renal = tested on: CAKI-1 renal
OVCAR-3 ovarian = tested on: OVCAR-3 ovarian
KM12 colon = tested on: KM12 colon
MCF7 breast = tested on: MCF7 breast
IGROV1 ovarian = tested on: IGROV1 ovarian
SK-MEL-2 melanoma = tested on: SK-MEL-2 melanoma
SF-539 CNS = tested on: SF-539 CNS
A549 NSCLC = tested on: A549 NSCLC
T-47D breast = tested on: T-47D breast
MALME-3M melanoma = tested on: MALME-3M melanoma
SK-OV-3 ovarian = tested on: SK-OV-3 ovarian
HCT-116 colon = tested on: HCT-116 colon
COLO 205 colon = tested on: COLO 205 colon
M14 melanoma = tested on: M14 melanoma
OVCAR-8 ovarian = tested on: OVCAR-8 ovarian
PC-3 prostate = tested on: PC-3 prostate
NCI-H23 lung = tested on: NCI-H23 lung
HS 578T breast = tested on: HS 578T breast
SNB-19 CNS = tested on: SNB-19 CNS
DU-145 prostate = tested on: DU-145 prostate
RXF 393 renal = tested on: RXF 393 renal
MDA-N = tested on: MDA-N
NCI-H460 lung = tested on: NCI-H460 lung
SK-MEL-5 melanoma = tested on: SK-MEL-5 melanoma
HT29 colon = tested on: HT29 colon
786-0 renal = tested on: 786-0 renal
TK-10 renal = tested on: TK-10 renal
UACC-62 melanoma = tested on: UACC-62 melanoma
EKVX NSCLC = tested on: EKVX NSCLC
NCI/ADR-RES ovarian = tested on: NCI/ADR-RES ovarian
SN12C renal = tested on: SN12C renal
NCI-H226 lung = tested on: NCI-H226 lung
LOX IMVI melanoma = tested on: LOX IMVI melanoma
SF-268 CNS = tested on: SF-268 CNS
SW-620 colon = tested on: SW-620 colon
K-562 leukemia = tested on: K-562 leukemia
SF-295 CNS = tested on: SF-295 CNS
MDA-MB-435 = tested on: MDA-MB-435
HOP-62 NSCLC = tested on: HOP-62 NSCLC
HOP-92 NSCLC = tested on: HOP-92 NSCLC
UACC-257 melanoma = tested on: UACC-257 melanoma
A498 renal = tested on: A498 renal

Measured: TGI

CCOC(=O)c1cnc(-n2[nH]c(C)c(CCO)c2=O)[nH]c1=O
not listed: A498 renal
> 100 µM: all other assays above

Nc1nc(N)c2ncn(CC3CCC(CO)C3)c2n1 (centres undefined)
not listed: HL-60(TB) leukemia | IGROV1 ovarian | MALME-3M melanoma | OVCAR-8 ovarian | NCI-H23 lung | NCI-H460 lung | HT29 colon
> 100 µM: all other assays above
